Source: paper PMC6792352, “Limited Chemical Structural Diversity Found to Modulate Thyroid Hormone Receptor in the Tox21 Chemical Library” (Environmental Health Perspectives, 2019)
Where a name gives a salt, the structure may show the parent alone. Positions of bridges follow the written chain, without caps; N, C: chain ends. Non-standard residues stand in square brackets, D forms with d. Residues, ends and D or L forms follow the SMILES beside them. hArg = N=C(N)NCCCC[C@H](N)C(=O)O; Mpa = O=C(O)CCS

Assay: in vitro
Conditions: rat, gh3-tre-luc cells, AC50 (uM) modified / 1000

Row | SMILES | CC50 at 24 h [µM]
1 | COc1ccc(C2NC(=S)N3C(c4ccc(OC)c(OC)c4)NC(=S)N23)cc1OC (stereo not shown) [3,7-Bis(3,4-dimethoxyphenyl)tetrahydro-1H,5H-[1,2,4]triazolo[1,2-a][1,2,4]triazole-1,5-dithione] | 0.208
2 | NCC(CC(=O)O)c1ccc(Cl)cc1 (stereo not shown) [Baclofen] | > 50
3 | O=Cc1ccccc1[N+](=O)[O-] [2-Nitrobenzaldehyde] | > 90
4 | CCc1cc(Cc2cc(CC)c(N)c(CC)c2)cc(CC)c1N [4,4'-Methylenebis(2,6-diethylaniline)] | 61.9
5 | CC[N+](C)(CC)CCOC(=O)C(O)(c1ccccc1)C1CCCCC1 (stereo not shown) [Oxyphenonium bromide] | > 50
6 | CC(S)C(=O)NCC(=O)O (stereo not shown) [Tiopronin] | > 50
7 | CS(=O)(=O)NC(=O)c1cc(Oc2ccc(C(F)(F)F)cc2Cl)ccc1[N+](=O)[O-] [Fomesafen] | > 90
8 | OC[C@H]1O[C@@H](n2cnc3c(O)ncnc32)[C@H](O)[C@@H]1O [Inosine] | > 50
9 | OCc1cccc(Oc2ccccc2)c1 [3-Phenoxybenzenemethanol] | > 90
10 | C=C(C)[C@@H]1CC[C@@H](C)C[C@H]1O [Isopulegol] | > 90
11 | COc1ccc(Nc2ccccc2)c(C)c1 [4-Methoxy-2-methyl-N-phenylaniline] | > 90
12 | CCCCCCCCCCCCCCCCCC(=O)OCCCCCCCCCCCCCC(C)C [Isocetyl stearate] | > 90
13 | Nc1ccn([C@@H]2O[C@H](CO)[C@@H](O)C2(F)F)c(=O)n1 [Gemcitabine hydrochloride] | 0.153
14 | O=C1c2ccccc2C(=O)c2c1ccc(O)c2O [Alizarin] | > 50
15 | CC(=O)c1cc(C(C)(C)C)cc2c1CCC2(C)C [1-(6-tert-Butyl-1,1-dimethyl-2,3-dihydro-1H-inden-4-yl)ethanone] | 40.7
16 | CCCCCCCCCCCCC(=O)O [Tridecanoic acid] | > 90
17 | CC(C)(Sc1cc(C(C)(C)C)c(O)c(C(C)(C)C)c1)Sc1cc(C(C)(C)C)c(O)c(C(C)(C)C)c1 [Probucol] | > 20
18 | CC(=O)C(C)O (stereo not shown) [Acetoin] | > 90
19 | Cc1c(N)c(=O)n(-c2ccccc2)n1C [Ampyrone] | > 20
20 | CC(C)c1ccc(O)c(C(C)C)c1 [2,4-Diisopropylphenol] | > 90
21 | C[C@@H](C1=C(CCN(C)C)Cc2ccccc21)c1ccccn1 [(S)-(+)-Dimethindene maleate] | 42.1
22 | OCc1ccccc1O [Salicyl alcohol] | > 50
23 | O=C(NC(=O)c1c(F)cccc1F)Nc1ccc(Cl)cc1 [Diflubenzuron] | > 90
24 | CCC1OCC(COc2ccc(Oc3ccccc3)cc2)O1 (stereo not shown) [Diofenolan] | > 90

Row | SMILES | CC50 at 24 h [µM]
25 | C=C(C)C(=O)OCCOC(=O)C(=C)C [Ethylene glycol dimethacrylate] | > 90
26 | COc1c(C)c2c(c(O)c1C/C=C(\C)CCC(=O)O)C(=O)OC2 [Mycophenolic acid] | 1.55
27 | CCc1ccc(C=O)cc1 [4-Ethylbenzaldehyde] | > 90
28 | CC[N+](C)(CC)CCOC(=O)C1c2ccccc2Oc2ccccc21 [Methantheline bromide] | > 50
29 | CCCCC(CC)COP(=O)(O)OCC(CC)CCCC (stereo not shown) [Bis(2-ethylhexyl) phosphate] | 63.4
30 | CCN(CC#N)c1cccc(C)c1 [2-(Ethyl(3-methylphenyl)amino)acetonitrile] | > 90
31 | CCCCCCCCCCCCCCCCN [Hexadecylamine] | > 50
32 | NCCCNCCSP(=O)(O)O [Amifostine] | > 50
33 | Nc1ccc(Cl)cc1[N+](=O)[O-] [4-Chloro-2-nitroaniline] | > 90
34 | CCOc1ccc(C(=O)OCCN(CC)CC)cc1 [Parethoxycaine] | > 50
35 | NC(=O)Nc1ccc(Cl)cc1 [4-Chlorophenylurea] | > 90
36 | C=CCCCC [1-Hexene] | > 100
37 | COc1ccc(Cc2cnc(N)nc2N)cc1OC [Diaveridine] | > 50
38 | O=S(=O)(NS(=O)(=O)C(F)(F)F)C(F)(F)F [Triethylsulfonium bis(trifluoromethanesulfonyl)imide] | > 90
39 | C=CCCCCCCCCCCCCCCCC [1-Octadecene] | > 5
40 | O=C(C(Cl)Cl)N1CCOC12CCCCC2 [MON-4660] | 62.3
41 | O=C1c2ccccc2C(=O)c2cc(S(=O)(=O)O)ccc21 [Sodium 9,10-dioxo-9,10-dihydroanthracene-2-sulfonate] | > 90
42 | CC1=CC(C)C(C=O)C(C)C1 (stereo not shown) [Isocyclocitral] | > 90
43 | C[C@H](CCC(=O)O)[C@H]1CC[C@H]2[C@@H]3C(=O)C[C@@H]4CC(=O)CC[C@]4(C)[C@H]3CC(=O)[C@]12C [Dehydrocholic acid] | > 50
44 | CCCCC(F)(F)[C@@]1(O)CC[C@H]2[C@@H](CC(=O)[C@@H]2CCCCCCC(=O)O)O1 [Lubiprostone] | > 50
45 | NNS(=O)(=O)c1ccc(Oc2ccc(S(=O)(=O)NN)cc2)cc1 [4,4'-Oxybis(benzenesulfohydrazide)] | > 90
46 | CC/C(=C(/CC)c1ccc(OP(=O)(O)O)cc1)c1ccc(OP(=O)(O)O)cc1 [Diethylstilbestrol diphosphate] | > 50
47 | CCCCCCCCCI [1-Iodononane] | > 90
48 | CCN1CCCC(OC(=O)C(c2ccccc2)c2ccccc2)C1 (stereo not shown) [Piperidolate hydrochloride] | 11.6

Row | SMILES | CC50 at 24 h [µM]
49 | N=C(N)NCCCC[C@@H]1NC(=O)CCSSC[C@@H](C(N)=O)NC(=O)[C@@H]2CCCN2C(=O)[C@H](Cc2c[nH]c3ccccc23)NC(=O)[C@H](CC(=O)O)NC(=O)CNC1=O [Eptifibatide] ([Mpa][hArg]GDWPC-NH2; disulfide 1-7) | > 50
50 | CN(C)CCN(C)CCN(C)C [1,1,4,7,7-Pentamethyldiethylenetriamine] | > 90
51 | CC(C)CCCCCOC(=O)COc1ccc(Cl)cc1Cl [2,4-D isooctyl ester] | > 90
52 | C=C1/C(=C\C=C2/CCC[C@]3(C)[C@@H]([C@H](C)OCCC(C)(C)O)CC[C@@H]23)C[C@@H](O)C[C@@H]1O [Maxacalcitol] | > 50
53 | COc1cc(NS(=O)(=O)c2ccc(N)cc2)nc(OC)n1 [Sulfadimethoxine] | > 20
54 | O=C(OCc1ccccc1)c1ccccc1 [Benzyl benzoate] | > 90
55 | O[C@@H]1CO[C@H]2[C@@H]1OC[C@@H]2O [Isosorbide] | > 50
56 | CCCCCC[C@@H](CCC)C(=O)O [(2R)-2-Propyloctanoic acid] | > 50
57 | C=CC(=O)OCCOC(=O)CCC(=O)O [4-[2-(Acryloyloxy)ethoxy]-4-oxobutanoic acid] | > 90
58 | CC(C)C1CCC(O)CC1 (stereo not shown) [4-Isopropylcyclohexanol] | > 90
59 | CN1CC(O)C2=C/C(=N/NC(N)=O)C(=O)C=C21 (stereo not shown) [Carbazochrome] | > 50
60 | CCc1cccc(C)c1N [2-Ethyl-6-methylaniline] | > 90
61 | CC(C)CCC[C@@H](C)[C@H]1CC[C@H]2[C@@H]3CC=C4C[C@@H](O)CC[C@]4(C)[C@H]3CC[C@]12C [Cholesterol] | > 50
62 | O=C1CC[C@H](C(=O)N2CCCCC2)N1 [Fasoracetam] | > 50
63 | [O-][n+]1ccccc1SSc1cccc[n+]1[O-] [Dipyrithione] | 0.205
64 | COc1cc2c(cc1OC)CC(=O)N(CCCN(C)C[C@H]1Cc3cc(OC)c(OC)cc31)CC2 [Ivabradine hydrochloride] | > 50
65 | CO/N=C(/C(=O)OC)c1ccccc1CO/N=C(\C)c1cccc(C(F)(F)F)c1 [Trifloxystrobin] | 36.9
66 | COc1ccc([C@@H]2Sc3ccccc3N(CCN(C)C)C(=O)[C@@H]2OC(C)=O)cc1 [(+)-Diltiazem] | 22.9
67 | CCc1ccc(C(=O)C(C)CN2CCCCC2)cc1 (stereo not shown) [Eperisone hydrochloride] | > 50
68 | CCC1(C2=NCCN2)Cc2ccccc2O1 (stereo not shown) [Efaroxan] | > 50
69 | CC(C)=CCC/C(C)=C/CC/C(C)=C/CO [Farnesol] | 68.1
70 | NC(=O)NC(N)=O [Imidodicarbonic diamide] | > 90

Same assay, conditions: rat, gh3-tre-luc cells, AC50 (uM) modified / 1000, Tox21_110001=Tox21_111074; viability, 1 nM T3 present, 24 h

Row | SMILES | CC50 at 24 h [µM]
71 | CC(C)CCON=O [3-Methylbutyl nitrite] | > 50

Same assay, conditions: rat, gh3-tre-luc cells, AC50 (uM) modified / 1000, Tox21_110001=Tox21_113156; viability, 1 nM T3 present, 24 h

Row | SMILES | CC50 at 24 h [µM]
72 | S=C(SSC(=S)N1CCCCC1)N1CCCCC1 [Dicyclopentamethylenethiuram disulfide] | 0.373

Same assay, conditions: rat, gh3-tre-luc cells, AC50 (uM) modified / 1000, Tox21_110001=Tox21_200910; viability, 1 nM T3 present, 24 h

Row | SMILES | CC50 at 24 h [µM]
73 | Oc1c(Cl)c(Cl)cc(Cl)c1Cl [2,3,5,6-Tetrachlorophenol] | 65.8

Same assay, conditions: rat, gh3-tre-luc cells, AC50 (uM) modified / 1000, Tox21_110001=Tox21_200983; viability, 1 nM T3 present, 24 h

Row | SMILES | CC50 at 24 h [µM]
74 | CC(C)CCON=O [3-Methylbutyl nitrite] | > 90

Same assay, conditions: rat, gh3-tre-luc cells, AC50 (uM) modified / 1000, Tox21_110001=Tox21_201723; viability, 1 nM T3 present, 24 h

Row | SMILES | CC50 at 24 h [µM]
75 | Nc1ccc(Cc2ccc(N)cc2)cc1 [4,4'-Methylenedianiline] | > 90

Same assay, conditions: rat, gh3-tre-luc cells, AC50 (uM) modified / 1000, Tox21_110001=Tox21_300875; viability, 1 nM T3 present, 24 h

Row | SMILES | CC50 at 24 h [µM]
76 | CCC1CCC(=O)O1 (stereo not shown) [gamma-Caprolactone] | > 100

Same assay, conditions: rat, gh3-tre-luc cells, AC50 (uM) modified / 1000, Tox21_110001=Tox21_301565; viability, 1 nM T3 present, 24 h

Row | SMILES | CC50 at 24 h [µM]
77 | O=C1c2ccccc2C(=O)C1C(=O)C(c1ccccc1)c1ccc(Cl)cc1 (stereo not shown) [Chlorophacinone] | 42.3

Same assay, conditions: rat, gh3-tre-luc cells, AC50 (uM) modified / 1000, Tox21_110001=Tox21_301566; viability, 1 nM T3 present, 24 h

Row | SMILES | CC50 at 24 h [µM]
78 | CCCN(CC1CC1)c1c([N+](=O)[O-])cc(C(F)(F)F)cc1[N+](=O)[O-] [Profluralin] | 76.2

Same assay, conditions: rat, gh3-tre-luc cells, AC50 (uM) modified / 1000, Tox21_110001=Tox21_301855; viability, 1 nM T3 present, 24 h

Row | SMILES | CC50 at 24 h [µM]
79 | Cc1cc(OC(=O)N(C)C)nn1C(=O)N(C)C [Dimetilan] | > 90
